From patent US10670605B2, “Cysteine reactive probes and uses thereof” (The Scripps Research Institute, priority 2015, dated 2020)

How the values were obtained:
Assay in all cases: Competitive isoTOP-ABPP in situ (fragment-treated cells)
Type in all cases: cell-based
[1] = target: cysteines in MDA-MB-231 and Ramos cells (Homo sapiens, UniProt O15446); conditions: 200 μM, insitu, 231
[2] = target: T1, cysteines in MDA-MB-231 and Ramos cells (Homo sapiens, UniProt Q5T440)
T1 sequence (Q5T440 40-356): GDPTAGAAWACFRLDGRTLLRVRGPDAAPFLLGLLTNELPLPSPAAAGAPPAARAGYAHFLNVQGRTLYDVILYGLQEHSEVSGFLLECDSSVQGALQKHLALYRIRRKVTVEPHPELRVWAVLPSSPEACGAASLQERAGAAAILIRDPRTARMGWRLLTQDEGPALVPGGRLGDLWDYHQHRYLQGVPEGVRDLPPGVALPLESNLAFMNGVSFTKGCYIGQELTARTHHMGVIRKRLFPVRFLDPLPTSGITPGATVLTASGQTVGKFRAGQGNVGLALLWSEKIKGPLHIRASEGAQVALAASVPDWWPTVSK

[3] = target: T2, cysteines in MDA-MB-231 and Ramos cells (Homo sapiens, UniProt Q8NFH5)
T2 sequence (Q8NFH5 1-326): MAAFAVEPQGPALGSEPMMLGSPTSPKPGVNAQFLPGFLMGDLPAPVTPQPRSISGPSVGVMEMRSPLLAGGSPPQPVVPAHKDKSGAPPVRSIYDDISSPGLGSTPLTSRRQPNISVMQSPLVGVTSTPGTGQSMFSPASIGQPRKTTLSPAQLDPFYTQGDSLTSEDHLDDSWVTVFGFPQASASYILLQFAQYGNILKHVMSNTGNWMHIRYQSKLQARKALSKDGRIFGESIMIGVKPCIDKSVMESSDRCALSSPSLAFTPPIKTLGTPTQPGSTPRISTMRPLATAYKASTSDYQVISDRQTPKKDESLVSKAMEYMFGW

[4] = target: T3, cysteines in MDA-MB-231 and Ramos cells (Homo sapiens, UniProt Q13158); conditions: 200 μM, insitu
T3 sequence (Q13158 1-208): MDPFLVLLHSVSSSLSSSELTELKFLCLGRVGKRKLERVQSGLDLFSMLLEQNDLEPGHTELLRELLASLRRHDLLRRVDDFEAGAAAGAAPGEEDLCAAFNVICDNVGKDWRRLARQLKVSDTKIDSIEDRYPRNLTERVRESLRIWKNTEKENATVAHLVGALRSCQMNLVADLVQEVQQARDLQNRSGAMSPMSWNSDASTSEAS

[5] = target: T4, cysteines in MDA-MB-231 and Ramos cells (Homo sapiens, UniProt P53384)
T4 sequence (P53384 1-320): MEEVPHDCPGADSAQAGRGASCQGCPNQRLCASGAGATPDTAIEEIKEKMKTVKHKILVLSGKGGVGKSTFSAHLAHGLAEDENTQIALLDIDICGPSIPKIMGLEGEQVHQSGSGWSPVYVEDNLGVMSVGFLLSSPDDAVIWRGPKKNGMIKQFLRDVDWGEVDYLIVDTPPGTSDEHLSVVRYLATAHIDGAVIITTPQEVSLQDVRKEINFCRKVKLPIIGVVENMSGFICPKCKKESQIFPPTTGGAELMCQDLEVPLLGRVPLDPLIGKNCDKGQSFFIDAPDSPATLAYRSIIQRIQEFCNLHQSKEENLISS

[6] = target: cysteines in MDA-MB-231 and Ramos cells (Homo sapiens, UniProt Q96NY7)
Sequence of cysteines in MDA-MB-231 and Ramos cells (Homo sapiens, UniProt Q96NY7) (Q96NY7 whole entry): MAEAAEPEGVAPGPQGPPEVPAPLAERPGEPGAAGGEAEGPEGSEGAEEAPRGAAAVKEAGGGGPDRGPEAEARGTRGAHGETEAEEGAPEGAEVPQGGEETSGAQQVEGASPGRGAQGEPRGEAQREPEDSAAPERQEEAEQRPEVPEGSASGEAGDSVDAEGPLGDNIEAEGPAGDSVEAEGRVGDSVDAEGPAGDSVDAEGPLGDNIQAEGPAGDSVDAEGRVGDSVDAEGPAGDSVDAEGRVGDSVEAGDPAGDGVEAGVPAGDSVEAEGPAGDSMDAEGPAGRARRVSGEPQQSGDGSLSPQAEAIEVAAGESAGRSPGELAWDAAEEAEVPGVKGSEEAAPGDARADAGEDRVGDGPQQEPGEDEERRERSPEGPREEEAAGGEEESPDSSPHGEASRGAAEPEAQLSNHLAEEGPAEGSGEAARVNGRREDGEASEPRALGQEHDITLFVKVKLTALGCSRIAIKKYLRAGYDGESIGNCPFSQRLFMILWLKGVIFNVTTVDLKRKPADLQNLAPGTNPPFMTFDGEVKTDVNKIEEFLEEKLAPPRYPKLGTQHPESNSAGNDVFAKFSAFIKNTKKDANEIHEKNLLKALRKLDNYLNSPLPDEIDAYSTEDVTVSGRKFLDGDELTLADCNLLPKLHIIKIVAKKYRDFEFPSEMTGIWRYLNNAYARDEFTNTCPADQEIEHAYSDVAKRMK

[7] = target: cysteines in MDA-MB-231 and Ramos cells (Homo sapiens, UniProt Q9Y3D2)
Sequence of cysteines in MDA-MB-231 and Ramos cells (Homo sapiens, UniProt Q9Y3D2) (Q9Y3D2 21-182): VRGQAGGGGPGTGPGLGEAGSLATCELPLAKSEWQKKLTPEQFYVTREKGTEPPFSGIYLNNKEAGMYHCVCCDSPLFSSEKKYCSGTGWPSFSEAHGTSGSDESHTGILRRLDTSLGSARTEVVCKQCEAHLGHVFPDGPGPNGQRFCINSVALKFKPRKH

[8] = target: T5, cysteines in MDA-MB-231 and Ramos cells (Homo sapiens, UniProt Q96RS6)
T5 sequence (Q96RS6 1-583): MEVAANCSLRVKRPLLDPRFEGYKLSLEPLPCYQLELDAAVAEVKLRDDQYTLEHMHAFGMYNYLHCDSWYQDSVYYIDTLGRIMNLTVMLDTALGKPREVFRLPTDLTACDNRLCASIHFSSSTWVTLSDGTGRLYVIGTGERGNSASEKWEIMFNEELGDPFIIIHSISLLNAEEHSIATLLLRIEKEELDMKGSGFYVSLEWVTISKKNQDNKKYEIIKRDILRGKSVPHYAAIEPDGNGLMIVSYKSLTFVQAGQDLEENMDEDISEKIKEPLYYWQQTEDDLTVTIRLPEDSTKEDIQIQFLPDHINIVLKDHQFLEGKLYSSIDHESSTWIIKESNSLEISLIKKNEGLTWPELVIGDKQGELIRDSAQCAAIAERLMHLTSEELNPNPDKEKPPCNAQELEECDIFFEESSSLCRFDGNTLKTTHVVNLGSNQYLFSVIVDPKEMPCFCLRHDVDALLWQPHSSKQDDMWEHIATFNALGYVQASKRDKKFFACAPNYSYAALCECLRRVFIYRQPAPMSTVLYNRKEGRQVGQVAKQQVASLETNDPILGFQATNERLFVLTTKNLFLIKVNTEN

Sequence of cysteines in MDA-MB-231 and Ramos cells (Homo sapiens, UniProt O15446) (O15446 whole entry): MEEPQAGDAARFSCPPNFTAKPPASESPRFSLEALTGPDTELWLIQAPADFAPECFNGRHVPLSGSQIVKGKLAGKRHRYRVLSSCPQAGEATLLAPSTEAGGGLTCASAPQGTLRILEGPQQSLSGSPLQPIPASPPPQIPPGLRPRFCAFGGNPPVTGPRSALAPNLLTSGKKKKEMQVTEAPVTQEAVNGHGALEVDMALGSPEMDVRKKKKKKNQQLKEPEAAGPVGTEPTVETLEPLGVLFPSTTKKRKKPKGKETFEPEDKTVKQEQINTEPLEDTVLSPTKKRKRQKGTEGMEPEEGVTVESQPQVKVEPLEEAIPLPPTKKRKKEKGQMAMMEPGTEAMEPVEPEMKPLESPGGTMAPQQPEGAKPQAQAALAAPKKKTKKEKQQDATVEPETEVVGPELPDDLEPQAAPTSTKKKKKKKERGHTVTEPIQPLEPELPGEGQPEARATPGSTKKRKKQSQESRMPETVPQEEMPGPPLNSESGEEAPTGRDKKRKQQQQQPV

COc1ccc2c(c1)CCCN2C(=O)CCl [compound 2]
isoTOP-ABPP reactivity O15446_C86 CD3EAP [1]: 3.9
isoTOP-ABPP reactivity Q5T440_C170 IBA57 ([2]; 200 μM, insitu, 231): 14.0
isoTOP-ABPP reactivity Q8NFH5_C255 NUP35 ([3]; 200 μM, insitu, 231): 5.1
isoTOP-ABPP reactivity Q13158_C98 FADD [4]; 231: 20.0

COc1ccc(C2CC(c3cccs3)=NN2C(=O)CCl)cc1 (stereo not shown) [compound 4]
isoTOP-ABPP reactivity P53384_C235 NUBP1 ([5]; 100 μM in situ 231): 0.6
isoTOP-ABPP reactivity Q5T440_C170 IBA57 ([2]; 100 μM in situ 231): 1.5
isoTOP-ABPP reactivity Q8NFH5_C255 NUP35 ([3]; 100 μM in situ 231): 3.9
isoTOP-ABPP reactivity Q96NY7_C487 CLIC6 ([6]; 100 μM in situ 231): 20.0
isoTOP-ABPP reactivity Q9Y3D2_C105 MSRB2 ([7]; 100 μM in situ 231): 20.0
isoTOP-ABPP reactivity Q96RS6_C376 NUDCD1 ([8]; 100 μM in situ 231): 1.6

COc1cc2c(cc1OC)CN(C(=O)CCl)CC2 [compound 8]
isoTOP-ABPP reactivity P53384_C235 NUBP1 ([5]; 200 μM, insitu, 231): 0.6
isoTOP-ABPP reactivity Q96NY7_C487 CLIC6 ([6]; 200 μM, insitu, 231): 5.1
isoTOP-ABPP reactivity Q9Y3D2_C105 MSRB2 ([7]; 200 μM, insitu, 231): 20.0

O=C(CCl)N1CCC(Cc2ccccc2)CC1 [compound 9]
isoTOP-ABPP reactivity P53384_C235 NUBP1 ([5]; 200 μM, insitu, 231): 6.8
isoTOP-ABPP reactivity Q96NY7_C487 CLIC6 ([6]; 200 μM, insitu, 231): 3.6
isoTOP-ABPP reactivity Q96RS6_C376 NUDCD1 ([8]; 200 μM, insitu, 231): 2.2

O=C(CCl)N1CCN(S(=O)(=O)c2ccccc2F)CC1 [compound 10]
isoTOP-ABPP ratio, cysteine O15446_C86 [1]: 4.7
isoTOP-ABPP ratio Q5T440_C170 ([2]; 200 μM, insitu, 231): 5.7
isoTOP-ABPP ratio Q8NFH5_C255 ([3]; 200 μM, insitu, 231): 3.5
isoTOP-ABPP ratio Q96NY7_C487 ([6]; 200 μM, insitu, 231): 3.2
isoTOP-ABPP ratio, cysteine Q9Y3D2_C105 ([7]; 200 μM, insitu, 231): 20.0
isoTOP-ABPP ratio Q96RS6_C376 ([8]; 200 μM, insitu, 231): 5.7

Cn1cc(S(=O)(=O)N2CCOCC2)cc1C(=O)NC(=O)CCl [compound 11]
isoTOP-ABPP ratio Q8NFH5_C255 ([3]; 100 μM in situ 231): 1.3
isoTOP-ABPP ratio Q96NY7_C487 ([6]; 100 μM in situ 231): 3.1
isoTOP-ABPP ratio, cysteine Q9Y3D2_C105 ([7]; 100 μM in situ 231): 1.3
isoTOP-ABPP ratio Q96RS6_C376 ([8]; 100 μM in situ 231): 0.8

O=C(CCl)NC(=O)NC12CC3CC(CC(C3)C1)C2 [compound 12]
isoTOP-ABPP ratio, cysteine O15446_C86 [1]: 3.3
isoTOP-ABPP ratio, cysteine P53384_C235 ([5]; 200 μM, insitu, 231): 0.5
isoTOP-ABPP ratio Q8NFH5_C255 ([3]; 200 μM, insitu, 231): 12.4
isoTOP-ABPP ratio Q96NY7_C487 ([6]; 200 μM, insitu, 231): 20.0
isoTOP-ABPP ratio, cysteine Q9Y3D2_C105 ([7]; 200 μM, insitu, 231): 20.0
isoTOP-ABPP ratio Q96RS6_C376 ([8]; 200 μM, insitu, 231): 1.1

O=C(CCl)NCCc1c[nH]c2ccccc12 [compound 13]
isoTOP-ABPP ratio, cysteine O15446_C86 [1]: 1.3
isoTOP-ABPP ratio Q5T440_C170 ([2]; 200 μM, insitu, 231): 1.2
isoTOP-ABPP ratio Q8NFH5_C255 ([3]; 200 μM, insitu, 231): 1.5
isoTOP-ABPP ratio Q96NY7_C487 ([6]; 200 μM, insitu, 231): 1.9
isoTOP-ABPP ratio, cysteine Q13158_C98 [4]; 231: 1.6
isoTOP-ABPP ratio Q96RS6_C376 ([8]; 200 μM, insitu, 231): 0.7
isoTOP-ABPP ratio Q96RS6_C376 ([8]; 200 μM, insitu, ramos): 1.2

O=C(CCl)NC12CC3CC(CC(C3)C1)C2 [compound 21]
isoTOP-ABPP ratio, cysteine O15446_C86 [1]: 1.7
isoTOP-ABPP ratio Q5T440_C170 ([2]; 200 μM, insitu, 231): 1.6
isoTOP-ABPP ratio Q8NFH5_C255 ([3]; 200 μM, insitu, 231): 1.8
isoTOP-ABPP ratio Q96NY7_C487 ([6]; 200 μM, insitu, 231): 1.2
isoTOP-ABPP ratio Q96RS6_C376 ([8]; 200 μM, insitu, 231): 1.4

CC(C)CCOCCNC(=O)CCl [compound 27]
isoTOP-ABPP ratio Q9Y3D2_C105 ([7]; 200 μM, insitu, 231): 1.5
isoTOP-ABPP ratio Q13158_C98 [4]; 231: 0.6

O=C(CCl)N1CCN(CC(=O)N2CCOCC2)CC1 [compound 29]
isoTOP-ABPP ratio Q5T440_C170 ([2]; 200 μM, insitu, ramos): 1.3
isoTOP-ABPP ratio Q8NFH5_C255 ([3]; 200 μM, insitu, ramos): 1.6
isoTOP-ABPP ratio Q13158_C98 ([4]; ramos): 1.3
isoTOP-ABPP ratio Q96RS6_C376 ([8]; 200 μM, insitu, ramos): 1.3

C=CC(=O)N(Cc1cccnc1)c1cc(C(F)(F)F)cc(C(F)(F)F)c1 [compound 31]
isoTOP-ABPP ratio P53384_C235 ([5]; 200 μM, insitu, 231): 0.7
isoTOP-ABPP ratio Q96NY7_C487 ([6]; 200 μM, insitu, 231): 0.5
isoTOP-ABPP ratio Q13158_C98 [4]; 231: 0.9
isoTOP-ABPP ratio Q96RS6_C376 ([8]; 200 μM, insitu, 231): 0.8

C=CC(=O)Nc1cc(F)c(N2CCN(C(=O)OC(C)(C)C)CC2)c(F)c1 [compound 38]
isoTOP-ABPP ratio P53384_C235 ([5]; 200 μM, insitu, 231): 2.0
isoTOP-ABPP ratio Q8NFH5_C255 ([3]; 200 μM, insitu, 231): 1.1
isoTOP-ABPP ratio Q9Y3D2_C105 ([7]; 200 μM, insitu, 231): 1.6
isoTOP-ABPP ratio Q13158_C98 [4]; 231: 1.5
isoTOP-ABPP ratio Q96RS6_C376 ([8]; 200 μM, insitu, 231): 1.3

Cc1ccc(C=C(C#N)C(=O)NCCN2CCOCC2)cc1 [compound 41]
isoTOP-ABPP ratio P53384_C235 ([5]; 200 μM, insitu, 231): 0.2
isoTOP-ABPP ratio Q5T440_C170 ([2]; 200 μM, insitu, 231): 0.7
isoTOP-ABPP ratio Q8NFH5_C255 ([3]; 200 μM, insitu, 231): 0.8
isoTOP-ABPP ratio Q96NY7_C487 ([6]; 200 μM, insitu, 231): 0.4
isoTOP-ABPP ratio Q9Y3D2_C105 ([7]; 200 μM, insitu, 231): 1.2
isoTOP-ABPP ratio Q96RS6_C376 ([8]; 200 μM, insitu, 231): 0.7

CC1CCc2ccccc2N1C(=O)CCl (stereo not shown) [compound 45]
isoTOP-ABPP ratio O15446_C86 [1]: 4.6
isoTOP-ABPP ratio Q5T440_C170 ([2]; 200 μM, insitu, 231): 3.5
isoTOP-ABPP ratio Q8NFH5_C255 ([3]; 200 μM, insitu, 231): 5.5
isoTOP-ABPP ratio Q96NY7_C487 ([6]; 200 μM, insitu, 231): 1.8
isoTOP-ABPP ratio Q9Y3D2_C105 ([7]; 200 μM, insitu, 231): 20.0
